In general, EC50 refers to the concentration giving half of the maximal effect. Broadly, the logD is the decadic logarithm of the distribution of all forms, ionised or not, between an organic phase and buffer at a given pH.

Structures are written as SMILES. Like-named read-outs stand apart in the source and are kept apart here. Marks after values point to notes of the source that are not given here. Peptide text beside a SMILES is read from it. * marks the point of attachment. Levofloxacinoyl = C[C@H]1COc2c(N3CCN(C)CC3)c(F)cc3c(=O)c(C(=O)*)cn1c23

Data set [1] deals with B. cereus (#11778). The data set can be described thus: microbe, parasite or virus in culture. The following applies: Bacillus cereus, 3 h.
Protocol: (§4) Frozen enumerated aliquots of bacteria were thawed and diluted into sterile buffer to a bacterial concentration of 2 × 10^6 CFU/mL. Wells of a 96-well polypropylene microtiter plate (Greiner Bio-One) were charged with 50 μL aliquots of buffer solutions containing serially diluted peptide, conjugate, or drug followed by 50 μL aliquots of diluted bacterial cells. Assays for each compound were prepared in triplicate. Control wells were prepared where the peptide/conjugate/drug solution was replaced with an equal volume of buffer alone. Following addition of bacteria, the microtiter plates were incubated for 3 h at either 37°C (E. coli) or 30°C (B. cereus). […] Plates were then immediately placed in a SpectraMax Gemini EM plate-reading fluorometer for overnight monitoring of fluorescence (530 nmex/590 nmem) at either 37°C (E. coli) or 30°C (B. cereus) with intermittent shaking. Onset time of half maximal fluorescence (T0.5) observed for each well was computed using the microplate data analysis software. In order to determine bacterial survival, it was necessary to establish correlations between bacterial concentration (CFU/mL) and T0.5 values. Therefore, standard curve equations were generated in preliminary experiments using bacterial suspensions serially diluted (~10^6 CFU/mL—10^3 CFU/mL) in each of the three buffers used in the antibacterial assays.
(§5) (2) log(CFU/mLB.cereus)=−1.00 × 10^−4(T0.5)+Yint
(§6) (3) Bacterial Survival=Smin+(Smax−Smin)/ (1+10^log(EC50)−log(PC)∗HS)
(§7) Assays were conducted under three different ionic strength (μ) buffer conditions in order to assess the effect salt concentration had on antibacterial effectiveness. The lowest ionic strength buffer used was 10 mM NaPO4, pH 7.4, which corresponded to 26 mM total ionic strength. […] Bacterial survival results were plotted against the log of the concentration of conjugate, peptide, or free drug. EC50 values for each assessed compound were calculated by fitting the survival data to equation 3, which models typical sigmoidal dose-response behavior using a variable Hill slope. An F test was used to assess statistical significance, with the alpha level set to 0.05.
Data set [2] has as its system B. cereus (#11778).
Protocol: as §4, §5, §6, §7
The test system of data set [3] is E. coli (#25922). The experiment in a line: microbe, parasite or virus in culture. The following applies: Escherichia coli, 3 h, pH 7.4, read-out: EC50 (95% confidence interval), E. coli, resazurin read-out, triplicate. A general note: The colour change of resazurin is a common sign of viable cells or microbes.
Protocol: as §4
(§8) (1) log(CFU/mLE.coli)=−2.00 × 10^−4(T0.5)+Yint
as §6, §7
Data set [4] relates to E. coli membranes. The experiment in a line: DiSC(3)5 membrane depolarization assay. The class given is cell-based. Particulars: E. coli 2 × 10^7 CFU/mL; 10 mM NaPO4 pH 7.4; 33 μM P4LC and Pep-4, 126 μM Pep-4/LVFX, 93 μM LVFX; melittin 33 μM = maximal; monitored 30 min; triplicate. The protocol:
(§1) Enumerated frozen aliquots of E. coli and B. cereus cells were thawed and washed 3x with buffer (10 mM NaPO4, pH 7.4). The washed cells were diluted in 10 mM NaPO4 buffer containing 10 ug/mL DiSC(3)5 to afford a concentration of 4 × 10^7 CFU/mL. Bacterial suspension was added to the wells of a black polypropylene microtiter plate (Greiner Bio-One) in 100 μL aliquots, and fluorescence was monitored (rt, with lid on) using a SpectraMax Gemini EM plate-reading fluorometer (622 nmex/ 670 nmem) until fluorescence quenching stabilized and maximal DiSC(3)5 uptake was achieved. […] The final concentrations of each assessed compound in the wells were 33 μM (P4LC and Pep-4), 126 μM (Pep-4/LVFX), and 93 μM (LVFX), while final bacterial concentrations were 2 × 10^7 CFU/mL. Assays were performed in triplicate for each compound assessed. […] The fluorescence kinetics data sets were normalized by setting emitted fluorescence to 0 at t = 0 s and presenting fluorescence intensity values as a fraction of maximal fluorescence observed for melittin.
(§2) For membrane depolarization and perturbation experiments, fluorescence data was analyzed by comparing best-fit curves (GraphPad Prism). Fluorescence kinetic curves were fit to a polynomial regression model (equation 4) to allow for statistical comparison of the fluorescence data via an F test, with all four best-fit parameters used as criteria. […]

For data set [5], the system named is B. cereus membranes. The data set can be described thus: DiSC(3)5 membrane depolarization assay. The class given is cell-based. Particulars: B. cereus 2 × 10^7 CFU/mL; 10 mM NaPO4 pH 7.4; 33 μM P4LC and Pep-4, 126 μM Pep-4/LVFX, 93 μM LVFX; melittin 33 μM = maximal; monitored 30 min; triplicate. The protocol:
as §1, §2

Data set [6] is described as follows: Distribution coefficient (1-octanol / 10 mM NaPO4 pH 7.4). The following applies: for logD at 10 min: pH 7.4. The protocol:
In these experiments, P4LC, Pep-4 or free LVFX dissolved in 100 μL of 10 mM NaPO4 (pH 7.4) buffer was combined with 100 μL of 1-Octanol in a 1.5 mL low binding polypropylene microcentrifuge tube (Corning). Each tube was vortexed for 10 min and the contained solvent allowed to settle. […] The maximal concentrations of Pep-4 and P4LC in the calibration curves were also established using amino acid analysis (UC Davis Genome Center Proteomics Core Facility). […] Indolicidin and melittin were used as reference peptides in these studies. […] The D7.4 values generated for P4LC, Pep-4, LVFX, indolicidin, and melittin were calculated (equation 5) based on their respective concentrations in the aqueous phase ([peptide]PO4buffer) of the water/octanol biphasic system and their concentrations in the initial stock solution ([peptide]total). Values are averaged from six replicates.
(5) logD7.4=log(([peptide]total−[peptide]PO4buffer)/([peptide]PO4buffer)) =log ([peptide]octanol/[peptide]PO4buffer)
The concentration ratios of each compound between the two liquid phases were used to establish distribution coefficients (D7.4). Indolicidin and melittin were used as reference peptides in these studies.

Data set [7] deals with E. coli membranes. The data set can be described thus: SYTOX green membrane perturbation assay. The class given is cell-based. Particulars: 10 mM NaPO4 pH 7.4, 33 μM P4LC, 33 μM Pep-4, 126 μM Pep-4/LVFX, 93 μM LVFX, biological triplicates. The protocol: (§3) Enumerated frozen aliquots of E. coli and B. cereus cells were thawed and washed 3x with buffer (10 mM NaPO4, pH 7.4). The washed cells were diluted to a concentration of 4 × 10^7 CFU/mL in 10 mM NaPO4 (pH 7.4) buffer containing 5 μM SYTOX Green, and the resulting suspension then stored in the dark for ~20 min. The bacterial suspension was then distributed in 100 μL aliquots to wells of a black polypropylene microtiter plate (Greiner Bio-One). […] The fluorescence of each well was immediately monitored (without the lid) using a SpectraMax Gemini EM plate-reading fluorometer (485/520 nmem). […] A negative control containing only bacteria and SYTOX Green was used to determine background fluorescence, and maximal perturbation of the bacterial cell membranes was established using melittin. The fluorescence kinetics data sets were normalized by setting emitted fluorescence to 0 at t = 0 s and presenting fluorescence intensity values as a fraction of maximal fluorescence observed for melittin.
as §2

For data set [8], the system named is B. cereus membranes. The data set can be described thus: SYTOX green membrane perturbation assay. The following applies: 10 mM NaPO4 pH 7.4, 33 μM P4LC, 33 μM Pep-4, 126 μM Pep-4/LVFX, 93 μM LVFX, melittin = maximal, biological triplicates. The class given is cell-based. The protocol:
as §3, §2

Data set [9] has as its system E. coli (#25922). The following applies: for EC50: read-out: EC50 (95% confidence interval), E. coli, resazurin read-out, triplicate.
Protocol: as §4, §8, §6, §7
Setting [10] is: read-out: EC50 (95% confidence interval), B. cereus, ionic strength μ2 = 111 mM (10 mM NaPO4 : cation-adjusted PBS 1:1, pH 7.4), 3 h at 30°C, resazurin read-out, triplicate, * = estimated, lower survival boundary set to 0.
Where [11] appears, read: ionic strength μ1 = 26 mM (10 mM NaPO4, pH 7.4), 3 h incubation at 37°C.
Setting [12] is: ionic strength μ2 = 111 mM (10 mM NaPO4 : cation-adjusted PBS 1:1, pH 7.4), 3 h at 37°C.
Where [13] appears, read: ionic strength μ3 = 167 mM (cation-adjusted PBS, pH 7.4), 3 h at 37°C, * = estimated, lower survival boundary set to 0.

With `C[C@H]1COc2c(N3CCN(C)CC3)c(F)cc3c(=O)c(C(=O)O)cn1c23` [LVFX, Levofloxacin], the EC50 was 981 nM in data set [1] (pH 7.4, read-out: EC50 (95% confidence interval)); 212 nM in data set [1] (pH 7.4, read-out: EC50 (95% confidence interval), B. cereus, ionic strength μ1 = 26 mM (10 mM NaPO4, pH 7.4), 3 h incubation at 30°C, resazurin read-out, triplicate); 591 nM in [2] (setting [10]); 2.81 nM in data set [3] (setting [11]); 2.23 nM in data set [3] (setting [12]); 2.77 nM in data set [3] (setting [13]). The “mean maximal DiSC(3)5 fluorescence relative to melittin (membrane depolarization)” value in [4] is 8.4%; in data set [5], 2.5%. Also, the “D7.4 fold greater than P4LC” value in data set [6] (1-octanol / 10 mM NaPO4 pH 7.4, ratio of D7.4 values) is “about 4.5 fold”. For the same compound, in data set [7], the “mean maximal SYTOX Green fluorescence relative to melittin (membrane perturbation)” value is “No increase in fluorescence”. Also, the “SYTOX Green fluorescence increase relative to melittin (membrane perturbation)” value in data set [8] is “No increase in fluorescence”.

With `C[C@H]1COc2c(N3CCN(C)CC3)c(F)cc3c(=O)c(C(=O)NCCCC[C@H](NC(=O)[C@H](CCCCNC(=O)c4cn5c6c(c(N7CCN(C)CC7)c(F)cc6c4=O)OC[C@@H]5C)NC(=O)[C@H](CCCNC(=N)N)NC(=O)[C@H](CCCNC(=N)N)NC(=O)[C@H](CO)NC(=O)[C@H](CO)NC(=O)[C@H](CCCNC(=N)N)NC(=O)[C@H](CCCNC(=N)N)NC(=O)CNC(=O)[C@H](CCCNC(=N)N)NC(=O)c4cn5c6c(c(N7CCN(C)CC7)c(F)cc6c4=O)OC[C@@H]5C)C(N)=O)cn1c23` [P4LC] (Levofloxacinoyl-RGRRSSRRK(Levofloxacinoyl)K(Levofloxacinoyl)-NH2), the EC50 was 16.7 nM in data set [9] (setting [11]); 1710 nM in data set [9] (setting [12]); 1510 nM in data set [9] (setting [13]); 21.8 nM in data set [2] (read-out: EC50 (95% confidence interval), B. cereus, ionic strength μ1 = 26 mM (10 mM NaPO4, pH 7.4), 3 h incubation at 30°C, resazurin read-out, triplicate); 2170 nM in data set [2] (setting [10]); 40000 nM in data set [2] (read-out: EC50 (95% confidence interval), B. cereus, ionic strength μ3 = 167 mM (cation-adjusted PBS, pH 7.4), 3 h at 30°C, resazurin read-out, triplicate, * = estimated, lower survival boundary set to 0). In data set [6], this compound displayed a logD at 10 min of -1.65.

With `N=C(N)NCCC[C@H](NC(=O)CNC(=O)[C@@H](N)CCCNC(=N)N)C(=O)N[C@@H](CCCNC(=N)N)C(=O)N[C@@H](CO)C(=O)N[C@@H](CO)C(=O)N[C@@H](CCCNC(=N)N)C(=O)N[C@@H](CCCNC(=N)N)C(=O)N[C@@H](CCCCN)C(=O)N[C@@H](CCCCN)C(N)=O` [Pep-4] (H-RGRRSSRRKK-NH2), the “EC50 (95% confidence interval)” value in data set [9] (#25922, 3 h, pH 7.4) was ~29.4 ^* (21.9–35.4)^* μM. The EC50 in data set [2] (#11778, 3 h, pH 7.4) worked out at 27.1 nM. The pH-dependent lipophilicity (logD) at 10 min in data set [6] is -2.57.

`CC[C@H](C)[C@H](N)C(=O)N[C@@H](CC(C)C)C(=O)N1CCC[C@H]1C(=O)N[C@@H](Cc1c[nH]c2ccccc12)C(=O)N[C@@H](CCCCN)C(=O)N[C@@H](Cc1c[nH]c2ccccc12)C(=O)N1CCC[C@H]1C(=O)N[C@@H](Cc1c[nH]c2ccccc12)C(=O)N[C@@H](Cc1c[nH]c2ccccc12)C(=O)N1CCC[C@H]1C(=O)N[C@@H](Cc1c[nH]c2ccccc12)C(=O)N[C@@H](CCCN=C(N)N)C(=O)N[C@@H](CCCN=C(N)N)C(N)=O` [indolicidin] displayed a logD at 10 min in data set [6] of 2.3.

In data set [6], `CC[C@H](C)[C@H](NC(=O)CN)C(=O)NCC(=O)N[C@@H](C)C(=O)N[C@H](C(=O)N[C@@H](CC(C)C)C(=O)N[C@@H](CCCCN)C(=O)N[C@H](C(=O)N[C@@H](CC(C)C)C(=O)N[C@H](C(=O)N[C@H](C(=O)NCC(=O)N[C@@H](CC(C)C)C(=O)N1CCC[C@H]1C(=O)N[C@@H](C)C(=O)N[C@@H](CC(C)C)C(=O)N[C@H](C(=O)N[C@@H](CO)C(=O)N[C@@H](Cc1c[nH]c2ccccc12)C(=O)N[C@H](C(=O)N[C@@H](CCCCN)C(=O)N[C@@H](CCCNC(=N)N)C(=O)N[C@@H](CCCCN)C(=O)N[C@@H](CCCNC(=N)N)C(=O)N[C@@H](CCC(N)=O)C(=O)N[C@@H](CCC(N)=O)C(N)=O)[C@@H](C)CC)[C@@H](C)CC)[C@@H](C)O)[C@@H](C)O)C(C)C)C(C)C` [melittin, Melittin] registered a logD at 10 min of -0.46.

The record behind these values is publication PMC4166900, “Covalent modification of a ten-residue cationic antimicrobial peptide with levofloxacin” (Frontiers in Chemistry, 2014).
